Legend:
[1] = tested on: mouse; conditions: Subchronic oral toxicity in rodents, b6c3f1, Feed, dose end: 7 week, group: systemic, systemic / in life observation / body weight / body weight
[2] = tested on: rat; conditions: Subchronic oral toxicity in rodents, fischer, Feed, dose end: 7 week, group: systemic, systemic / in life observation / body weight / body weight
[3] = tested on: rat; conditions: Carcinogenicity; fischer; Oral; Feed; dose end: 107 week; group: systemic; systemic / in life observation / body weight / body weight
[4] = tested on: mouse; conditions: Carcinogenicity; b6c3f1; Oral; Feed; dose end: 108 week; group: systemic; systemic / in life observation / body weight / body weight
[5] = tested on: rat; conditions: Subchronic oral toxicity in rodents, other, Feed, dose end: 6 month, group: systemic
[6] = tested on: mouse; conditions: Carcinogenicity; other; Oral; Feed; dose end: 24 month; group: systemic; systemic / hematology / anemia / anemia - nos + systemic / organ weight / liver / absolute + systemic / organ weight / liver / relative to …
[7] = tested on: rat; conditions: Combined chronic toxicity/carcinogenicity; wistar; Oral; Feed; dose end: 24 month; group: systemic; systemic / organ weight / spleen / absolute + systemic / organ weight / spleen / relative to body weight + systemic / pathology microscopic…
[8] = tested on: rat; conditions: Multigenerational reproductive toxicity study, sprague dawley, Oral, Feed, dose end: 2 generation
[9] = tested on: rat; conditions: Other (NonGuideline or Guideline Not Listed), sprague dawley, Oral, Gavage/Intubation, dose end: 7 day, group: cannot be grouped
[10] = tested on: rat; conditions: Sub-acute repeat dose toxicity; sprague dawley; Oral; Gavage/Intubation; dose end: 6 day; group: systemic; systemic / clinical chemistry / alanine aminotransferase (alt/sgpt) / alanine aminotransferase (alt/sgpt) + systemic / clinical chemistry / …
[11] = tested on: primate; conditions: Other (NonGuideline or Guideline Not Listed); rhesus; Oral; Gavage/Intubation; dose end: 8 day; group: cannot be grouped; systemic / clinical chemistry / alanine aminotransferase (alt/sgpt) / alanine aminotransferase (alt/sgpt) + systemic / clinical chemistry / …
[12] = tested on: rat; conditions: Sub-acute repeat dose toxicity; sprague dawley; Oral; Gavage/Intubation; dose end: 16 day; group: systemic; systemic / organ weight / liver / absolute + systemic / organ weight / liver / relative to body weight + systemic / organ weight / liver / …
[13] = tested on: rat; conditions: Other (NonGuideline or Guideline Not Listed); sprague dawley; Oral; Gavage/Intubation; dose end: 5 day; group: cannot be grouped; systemic / clinical chemistry / alanine aminotransferase (alt/sgpt) / alanine aminotransferase (alt/sgpt) + systemic / clinical chemistry / …
[14] = systemic / pathology gross / urinary bladder / lesion(s) (nos) + systemic / pathology microscopic / blood vessel / [other] + systemic / …
[15] = group: offspring, systemic / in life observation / body weight / offspring (pup) weight
[16] = group: parental, systemic / in life observation / body weight / body weight + systemic / in life observation / body weight / body weight gain + systemic / in…
[17] = systemic / clinical chemistry / alkaline phosphatase (alp/alk) / alkaline phosphatase (alp/alk) + systemic / clinical chemistry / glucose / …
[18] = systemic / clinical chemistry / glucose / glucose + systemic / pathology gross / liver / discolored + systemic / pathology microscopic / …

In the case of `CCN(CC)C(=S)SSC(=S)N(CC)CC` [Disulfiram], the LEL [1] is reported as 150 mg/kg/day, the LOAEL [1] is reported as 150 mg/kg/day and the NEL [1] is reported as 75 mg/kg/day. The NOAEL [1] was 75 mg/kg/day, the LEL [2] was 75 mg/kg/day and the LOAEL [2] was 75 mg/kg/day. The NEL [2] was < 75 mg/kg/day, the NOAEL [2] was < 75 mg/kg/day and the LEL [3] was 15 mg/kg/day. The LOAEL [3] was > 30 mg/kg/day, the NEL [3] was < 15 mg/kg/day and the NOAEL [3] was ≥ 30 mg/kg/day. For the same compound, the LEL [4] was 15 mg/kg/day, the LOAEL [4] was 15 mg/kg/day and the NEL [4] was < 15 mg/kg/day. The NOAEL [4] was < 15 mg/kg/day.

In the case of `CN(C)C(=O)Nc1ccc(Cl)c(Cl)c1` [Diuron], the LEL [5, 14] is reported as 0.3 mg/kg/day, the NEL [5, 14] is reported as < 0.3 mg/kg/day and the NOAEL [5, 14] is reported as 0.7 mg/kg/day. It also gave an LOAEL ([5]; systemic / pathology microscopic / spleen / pigmentation) of 1.6 mg/kg/day, an LEL [6] of 640 mg/kg/day and an LOAEL [6] of 640 mg/kg/day. The NEL [6] was 50.8 mg/kg/day, the NOAEL [6] was 50.8 mg/kg/day and the LEL [7] was 1 mg/kg/day. For the same compound, the LOAEL [7] was 1 mg/kg/day, the NEL [7] was < 1 mg/kg/day and the NOAEL [7] was < 1 mg/kg/day. The LEL [8, 15] was 139 mg/kg/day, the LOAEL [8, 15] was 139 mg/kg/day and the NEL [8, 15] was 18.9 mg/kg/day. It also gave an NOAEL [8, 15] of 18.9 mg/kg/day, an LEL [8, 16] of 101 mg/kg/day and an LOAEL [8, 16] of 101 mg/kg/day. The NEL [8, 16] was 14.8 mg/kg/day and the NOAEL [8, 16] was 14.8 mg/kg/day.

For `CCn1nc(Cc2ccccc2)cc1C1CCN(C[C@H]2C[C@H](N(C)[C@@H](C(=O)O)C(C)C)C[C@@H]2c2cccc(F)c2)CC1` [MK-578], the LOAEL [9, 17] was > 250 mg/kg/day, the NOAEL [9, 17] was ≥ 250 mg/kg/day and the LEL [9, 18] was 100 mg/kg/day. For the same compound, the NEL [9, 18] was < 100 mg/kg/day, the LEL [10] was 500 mg/kg/day and the LOAEL [10] was > 500 mg/kg/day. For the same compound, the NEL [10] was < 500 mg/kg/day, the NOAEL [10] was ≥ 500 mg/kg/day and the LEL [11] was 200 mg/kg/day. The LOAEL [11] was > 200 mg/kg/day, the NEL [11] was < 200 mg/kg/day and the NOAEL [11] was ≥ 200 mg/kg/day. The LEL [12] was 100 mg/kg/day, the LOAEL [12] was > 100 mg/kg/day and the NEL [12] was 30 mg/kg/day. The NOAEL [12] was ≥ 100 mg/kg/day, the LEL [13] was 250 mg/kg/day and the LOAEL [13] was > 500 mg/kg/day. The NEL [13] was < 250 mg/kg/day and the NOAEL [13] was ≥ 500 mg/kg/day.

From EPA's ToxRefDB 2
